Where two headings read alike, the source gives them in different places.
Tests used:
[1] = test system: HaCaT; test: Phototoxicity, neutral red dye uptake, HaCaT cells; format: cell-based
Method: (§1) 2×6 ft Cosmolux RA Plus (Cosmedico), 15500/100 W light sources were used, each filtered to attenuate UVB/UVC wavelengths. Irradiance was measured with a Waldmann PUMA meter, calibrated to the source using a double grating Spectroradiometer (Bentham, UK).
(§2) Immediately before use, the compounds were dissolved in warm Earle's Balanced Salt Solution (EBSS), sonicated and vortexed to assist dissolution. For experiments, cells were seeded at densities of 3- or 5×10^4 cells/cm^2. After overnight incubation, washed cells were incubated with test compounds in EBSS for 1 h at 310 K/5% CO2. Cells were then irradiated with 5 J cm^−2 glass filtered UVA (1.77 mW cm^−2: λmax 365 nm) for 50 min. Test compounds were removed and cells either prepared immediately for photogenotoxicity assays, or incubated with complete medium for 24 h before assessing phototoxicity. Control plates were treated identically to the test plates and sham irradiated.
(§3) Phototoxicity was monitored by measuring the uptake of neutral red dye into viable cells. Briefly, after irradiation cells were washed and then incubated with DMEM containing 5% FCS, 1% NEAA and 50 μg ml^−1 neutral red dye for 3 h at 310 K/5% CO2. After this time, cells were rapidly washed with formaldehyde containing 1% (w/v) CaCl2, and solubilised in 50% EtOH containing 1% acetic acid. Absorbance was read at 540 nm against a solubilisation solution as blank. The IC50 value was defined as the concentration of compound that inhibited dye uptake by 50% and was calculated using non-linear regression (Graphpad Prism). Goodness of fit was determined from the R^2 values of the curves and 95% confidence intervals.

[2] = test system: A2780; test: Phototoxicity, neutral red dye uptake, A2780 cells; format: cell-based
Method: as §1, §2, §3

[3] = test system: A2780CIS; test: Phototoxicity, neutral red dye uptake, A2780CIS cells; format: cell-based
Method: as §1, §2, §3

[4] = test system: polynucleotide having the sequence ATACATGGTACATA; test: Photoactivation and binding to 14mer polynucleotide; settings: 1 mM ATACATGGTACATA, blue light as example 9; NMR
Method: The procedure of example 9 was repeated with a 1 mM solution of a polynucleotide having the sequence ATACATGGTACATA, and using the compound obtained in example 2 in place of that obtained in example 1.

[5] = dark, sham irradiated control, read-out: IC50 Value HaCaT Dark
[6] = irradiated 5 J cm^-2 UVA, λmax 365 nm, 50 min, neutral red uptake after 24 h, read-out: IC50 Value HaCaT 365 nm
[7] = dark, sham irradiated control, read-out: IC50 Value A2780 Dark
[8] = irradiated 5 J cm^-2 UVA, λmax 365 nm, 50 min, neutral red uptake after 24 h, read-out: IC50 Value A2780 365 nm
[9] = dark, sham irradiated control, read-out: IC50 Value A2780CIS Dark
[10] = irradiated 5 J cm^-2 UVA, λmax 365 nm, 50 min, neutral red uptake after 24 h, read-out: IC50 Value A2780CIS 365 nm

Substance | IC50 [1, 5] [µM] | IC50 [1, 6] [µM] | IC50 [2, 7] [µM] | IC50 [2, 8] [µM] | IC50 [3, 9] [µM] | IC50 [3, 10] [µM] | Binding to 14mer polynucleotide after photoactivation [4]
Trans,trans,trans-[Pt(N3)2(OH)2(NH3)(tz)] [FM172] | > 241 | 5.8 | 187 | 5.4 | > 241 | 16.1 | –
Cis,trans-[Pt^IV(en)(N3)2(OH)2] [Example 2] | – | – | – | – | – | – | binding of species containing the cis-[PtII(en)] moiety to the GG moiety had taken place
Trans,trans,trans-[Pt(N3)2(OH)2(NH3)(py)] [FM165] | > 244 | 6.1 | > 244 | 1.9 | > 244 | 16.9 | –
Trans,trans,trans-[Pt(N3)2(OH)2(NH3)(2-pic)] [FM171] | > 236 | 55.3 | > 236 | 51 | > 236 | 59.8 | –
Trans,trans,trans-[Pt(N3)2(OH)2(NH3)(4-pic)] [FM174] | 98.8 | 6.5 | – | – | – | – | –

Source: US7928097B2, “Photoreactive compounds and compositions” (priority 2001, dated 2011)
